Legend:
Experiment in all cases: relative viability (nuclei count vs DMSO), 5 days (fraction); higher = more cells survive
Alpelisib + Olaparib = compound: Cc1nc(NC(=O)N2CCC[C@H]2C(N)=O)sc1-c1ccnc(C(C)(C)C(F)(F)F)c1 [Alpelisib] + O=C(c1cc(Cc2n[nH]c(=O)c3ccccc23)ccc1F)N1CCN(C(=O)C2CC2)CC1 [Olaparib] (partner 8 µM)
In short: (§1)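 After 5 days of treatment, lung cancer cells in 1536-well plates were fixed and stained in a single step (final 0.05% Triton X-100, 1% formaldehyde, 1 ug/ml Hoechst) and their nuclei counted on 4× images. Treatment had been applied by pin tool the day after seeding as one drug alone or as a fixed anchor-drug dose with five library-drug doses (not always all listed) in √10 steps. Relative viability is the nuclei count of treated wells divided by that of vehicle wells, and values are medians of duplicate plates.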

Alpelisib + Pemetrexed = compound: Cc1nc(NC(=O)N2CCC[C@H]2C(N)=O)sc1-c1ccnc(C(C)(C)C(F)(F)F)c1 [Alpelisib] + Nc1nc2[nH]cc(CCc3ccc(C(=O)N[C@@H](CCC(=O)O)C(=O)O)cc3)c2c(=O)[nH]1 [Pemetrexed] (partner 0.2 µM)
In short: as §1

Vemurafenib + Bortezomib = compound: CCCS(=O)(=O)Nc1ccc(F)c(C(=O)c2c[nH]c3ncc(-c4ccc(Cl)cc4)cc23)c1F [Vemurafenib] + CC(C)C[C@H](NC(=O)[C@H](Cc1ccccc1)NC(=O)c1cnccn1)B(O)O [Bortezomib] (partner 0.002 µM)
In short: as §1

Vemurafenib + Vorinostat = compound: CCCS(=O)(=O)Nc1ccc(F)c(C(=O)c2c[nH]c3ncc(-c4ccc(Cl)cc4)cc23)c1F [Vemurafenib] + O=C(CCCCCCC(=O)Nc1ccccc1)NO [Vorinostat] (partner 1 µM)
In short: as §1

Row | Cell Line | relative viability (Alpelisib + Olaparib; first compound 0.04 µM) | relative viability (Alpelisib + Olaparib; first compound 0.1265 µM) | relative viability (Alpelisib + Olaparib; first compound 0.4 µM) | relative viability (Alpelisib + Olaparib; first compound 1.265 µM) | relative viability (Alpelisib + Olaparib; first compound 4 µM) | relative viability (Alpelisib + Pemetrexed; first compound 0.04 µM) | relative viability (Alpelisib + Pemetrexed; first compound 0.1265 µM) | relative viability (Alpelisib + Pemetrexed; first compound 0.4 µM) | relative viability (Alpelisib + Pemetrexed; first compound 1.265 µM) | relative viability (Alpelisib + Pemetrexed; first compound 4 µM) | relative viability (Vemurafenib + Bortezomib; first compound 0.03162 µM) | relative viability (Vemurafenib + Bortezomib; first compound 0.1 µM) | relative viability (Vemurafenib + Bortezomib; first compound 0.3162 µM) | relative viability (Vemurafenib + Bortezomib; first compound 1 µM) | relative viability (Vemurafenib + Vorinostat; first compound 0.03162 µM) | relative viability (Vemurafenib + Vorinostat; first compound 0.1 µM) | relative viability (Vemurafenib + Vorinostat; first compound 0.3162 µM) | relative viability (Vemurafenib + Vorinostat; first compound 1 µM)
1 | NCI-H661 | 0.734 | 0.773 | 0.878 | 0.732 | 0.749 | 0.941 | 1.01 | 0.961 | 0.915 | 0.796 | 0.877 | 0.663 | 0.765 | 0.778 | 0.73 | 0.72 | 0.803 | 0.749
2 | NCI-H2126 | 0.887 | 0.864 | 0.871 | 0.76 | 0.659 | 0.686 | 0.752 | 0.674 | 0.584 | 0.509 | 1.07 | 1.07 | 1.09 | 1.14 | 0.761 | 0.576 | 0.869 | 0.633
3 | LCLC-97TM1 | 0.379 | 0.396 | 0.304 | 0.197 | 0.116 | 0.177 | 0.17 | 0.183 | 0.174 | 0.127 | 0.495 | 0.587 | 0.528 | 0.742 | – | 0.74 | 0.777 | 0.42
4 | NCI-H2405 | 0.905 | 0.864 | 0.898 | 0.657 | 0.71 | 1.08 | 0.975 | 1.02 | 0.814 | 0.571 | 0.925 | 0.995 | – | 0.829 | 0.911 | 0.987 | – | 1.03
5 | COR-L 105 | 0.706 | 0.646 | 0.755 | 0.686 | 0.642 | 1.12 | 1.18 | 1.39 | 0.935 | 1.13 | 0.772 | – | 0.485 | 0.759 | 0.838 | – | 0.903 | 0.815
6 | BEN | 1.18 | 1.18 | 1.22 | 1.02 | 0.879 | 0.723 | 0.598 | 0.844 | 0.794 | 0.85 | 0.768 | 0.933 | 0.351 | 0.554 | 0.494 | 0.592 | 0.402 | 0.503
7 | HCC-827 | 0.601 | 0.678 | 0.768 | 0.499 | 0.503 | 0.277 | 0.285 | 0.278 | 0.225 | 0.143 | 0.968 | – | 0.765 | 1.16 | 0.796 | – | 0.663 | 0.816
8 | NCI-H3122 | 0.644 | 0.657 | 0.668 | 0.647 | 0.508 | 0.208 | 0.208 | 0.204 | 0.197 | 0.173 | 0.989 | 1.01 | 1.04 | 1.07 | 0.962 | 0.916 | 1.01 | 1.04
9 | HCC-15 | 0.685 | 0.765 | 0.738 | 0.616 | 0.509 | 0.228 | 0.218 | 0.211 | 0.21 | 0.211 | 0.958 | 1.01 | 0.848 | 0.844 | 0.775 | 0.8 | 0.899 | 0.805
10 | NCI-H1755 | 0.928 | 0.892 | 0.917 | 0.818 | 0.788 | 0.409 | 0.432 | 0.437 | 0.371 | 0.402 | 0.877 | 0.878 | 0.712 | 0.931 | 0.749 | 0.728 | 0.68 | 0.778
11 | EMC-BAC-2 | 0.492 | 0.382 | 0.498 | 0.347 | 0.318 | 0.448 | 0.461 | 0.447 | 0.441 | 0.353 | 0.984 | 1.02 | 0.899 | 0.835 | 0.361 | 0.411 | – | 0.415
12 | NCI-H838 | 0.774 | 0.754 | 0.744 | 0.637 | 0.613 | 0.257 | 0.238 | 0.244 | 0.229 | 0.199 | 0.707 | 0.723 | – | 1.15 | 0.683 | 0.726 | 0.6 | 0.844
13 | NCI-H1650 | 0.878 | 0.786 | 0.932 | 0.523 | 0.622 | 0.434 | 0.354 | 0.337 | 0.335 | 0.353 | 0.223 | – | 0.208 | 0.217 | 0.466 | 0.477 | 0.682 | 0.485
14 | NCI-H1975 | 0.689 | 0.859 | 0.838 | 0.563 | 0.625 | 0.298 | 0.293 | 0.294 | 0.285 | 0.279 | 0.361 | 0.313 | 0.24 | 0.385 | 0.715 | 0.661 | 0.602 | 0.726
15 | NCI-H1437 | 0.64 | 0.684 | 0.679 | 0.627 | 0.644 | 0.3 | 0.31 | 0.274 | 0.252 | 0.213 | 0.439 | 0.411 | 0.622 | 0.541 | 0.798 | 0.825 | 0.873 | 0.945
16 | NCI-H1666 | 0.771 | 0.774 | 0.816 | 0.704 | 0.688 | 0.882 | 0.893 | 0.979 | 0.833 | 0.514 | 0.839 | – | 0.98 | 0.759 | 0.972 | 1.05 | 1.08 | 1.01
17 | NCI-H647 | 0.534 | 0.485 | 0.569 | 0.487 | 0.436 | 0.182 | 0.168 | 0.193 | 0.161 | 0.155 | 0.881 | 0.96 | 0.739 | 0.874 | 0.411 | 0.643 | 0.6 | 0.442
18 | NCI-H23 | 0.254 | 0.269 | 0.321 | 0.232 | 0.289 | 0.78 | 0.622 | 0.726 | 0.602 | 0.416 | 1 | 1.01 | 1.15 | 1.29 | 0.53 | 0.588 | 0.561 | 0.402

Source: the supplement of paper PMC10307832
